{"source": "paper PMC7613620", "about": "“Reaction hijacking of tyrosine tRNA synthetase as a whole-of-life-cycle antimalarial strategy” (Science (New York, N.Y.), 2022)", "details": "SCID, mouse, in vivo, ip, 50 mg/kg", "protocol": "625 of 50 mg/kg of compound on day 3 post-infection and measuring the effect on blood parasitemia by\n626 microscopic analysis of Giemsa-stained blood smears (on days 3, 4, 5, 6 and 7 post-infection). Mice were\n630 Human biological samples were sourced ethically; and their research use was in accord with the terms of\n631 the informed consent. All animal studies were ethically reviewed and carried out in accredited facilities in\n632 accordance with the relevant country’s directives and the institution’s Policy on the Care, Welfare and\n633 Treatment of Animals.\n635 Plasma exposure in infected mouse model\n637 blood samples (20 μL) were obtained at time points up to 24 hours after the first administration. Protein was\n638 precipitated with acetonitrile and the remaining compound was assessed by LC-MS/MS in the selected reaction\n641 Rat pharmacokinetics (PK) analyses\n642 Sprague-Dawley rats (11 weeks old) were sourced from Hilltop Lab Animals, Inc (Scottdale, Pennsylvania,\n643 USA). ML901 was formulated in EtOH: DMAC: PEG400: H2O at 1:1:4:4 (v/v) and 10% captisol in 50 […]\n648 0.5% formic acid in methanol and the supernatants were analysed by positive ion electrospray LC-MS for\n649 the administered compound. Non-compartmental pharmacokinetic parameters were calculated from […]\n660 IGM Genomics Center on the Illumina HiSeq 2500 in RapidRun mode to generate 100bp paired-end reads.", "data": [{"smiles": "Nc1ncnc2c1c(OC(F)F)nn2[C@@H]1O[C@H](COS(N)(=O)=O)[C@@H](O)[C@H]1O", "note": "[ML901]", "values": [{"measurement": "exposure (area under the curve)", "value": 580, "unit": "µM·h"}]}]}
